According to publication PMC8301576 (Clinical and Translational Science, 2021):
“And” between values parts separate entries of the source, which are not always exact repeats. Identical values can stand only once. Like-named read-outs stand apart in the source and are kept apart here. Blank lines part the entries; values can stand above or below the compound they belong to.

Assays:
[1] = cited from earlier work
[2] = Trial 1: plasma pharmacokinetics in healthy subjects; type: in vivo, human
[3] = Trial 2: plasma pharmacokinetics in healthy subjects; type: in vivo, human; conditions: 48 h postdose after 7 days 300 mg TLV q.d.
[4] = Earlier clinical data on TLV and DM-4103; type: in vivo, human; conditions: from elimination half-life
[5] = target: T1, OAT3 (Homo sapiens, UniProt Q8TCC7); test: Trial 2: clinical DDI, furosemide in presence of DM-4103 vs furosemide alone; type: in vivo; conditions: at clinically relevant concentrations
T1 sequence (Q8TCC7 1-542): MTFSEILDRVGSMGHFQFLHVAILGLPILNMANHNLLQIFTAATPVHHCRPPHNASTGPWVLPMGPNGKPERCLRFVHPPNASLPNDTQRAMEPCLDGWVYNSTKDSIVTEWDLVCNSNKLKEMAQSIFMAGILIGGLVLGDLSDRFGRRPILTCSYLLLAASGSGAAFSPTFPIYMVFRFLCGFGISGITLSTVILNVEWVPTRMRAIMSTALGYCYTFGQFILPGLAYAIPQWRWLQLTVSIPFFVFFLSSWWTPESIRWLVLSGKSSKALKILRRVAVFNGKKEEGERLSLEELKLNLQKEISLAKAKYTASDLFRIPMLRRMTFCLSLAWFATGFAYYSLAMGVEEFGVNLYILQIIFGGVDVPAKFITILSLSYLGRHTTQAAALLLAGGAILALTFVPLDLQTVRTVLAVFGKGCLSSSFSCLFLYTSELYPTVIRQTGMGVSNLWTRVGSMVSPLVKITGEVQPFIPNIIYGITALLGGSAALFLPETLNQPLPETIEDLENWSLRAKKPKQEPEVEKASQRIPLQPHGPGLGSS

[6] = target: T2, OATP1B1 (Homo sapiens, UniProt Q9Y6L6); type: in vivo
T2 sequence (Q9Y6L6 1-691): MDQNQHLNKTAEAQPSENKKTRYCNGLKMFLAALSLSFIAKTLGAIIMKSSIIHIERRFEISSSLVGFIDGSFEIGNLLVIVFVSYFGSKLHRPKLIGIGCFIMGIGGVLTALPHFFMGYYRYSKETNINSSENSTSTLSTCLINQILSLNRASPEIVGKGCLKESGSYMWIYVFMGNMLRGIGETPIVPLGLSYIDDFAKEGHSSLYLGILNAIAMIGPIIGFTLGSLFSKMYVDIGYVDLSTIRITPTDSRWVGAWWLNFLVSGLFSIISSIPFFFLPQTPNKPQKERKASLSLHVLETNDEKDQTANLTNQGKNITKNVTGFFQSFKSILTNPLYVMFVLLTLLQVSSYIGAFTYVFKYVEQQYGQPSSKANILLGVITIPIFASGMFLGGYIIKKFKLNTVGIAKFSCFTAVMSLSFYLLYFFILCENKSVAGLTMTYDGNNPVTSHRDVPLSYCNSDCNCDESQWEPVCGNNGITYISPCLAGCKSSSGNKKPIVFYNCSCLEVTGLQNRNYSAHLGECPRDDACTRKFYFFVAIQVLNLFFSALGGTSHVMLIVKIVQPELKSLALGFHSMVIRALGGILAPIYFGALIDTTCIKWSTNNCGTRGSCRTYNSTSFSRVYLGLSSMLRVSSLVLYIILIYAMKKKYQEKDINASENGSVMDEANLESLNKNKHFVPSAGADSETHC

[7] = Plasma protein binding; type: in vitro ADME
[8] = Trial 2: treatment-emergent adverse events; type: in vivo, human
[9] = system: sodium‐dependent taurocholate co‐transporting polypeptide (NTCP); conditions: cited from earlier work
[10] = target: T3, BCRP (Homo sapiens, UniProt Q9UNQ0); test: Trial 1: clinical DDI, rosuvastatin with TLV vs rosuvastatin alone; type: in vivo
T3 sequence (Q9UNQ0 1-655): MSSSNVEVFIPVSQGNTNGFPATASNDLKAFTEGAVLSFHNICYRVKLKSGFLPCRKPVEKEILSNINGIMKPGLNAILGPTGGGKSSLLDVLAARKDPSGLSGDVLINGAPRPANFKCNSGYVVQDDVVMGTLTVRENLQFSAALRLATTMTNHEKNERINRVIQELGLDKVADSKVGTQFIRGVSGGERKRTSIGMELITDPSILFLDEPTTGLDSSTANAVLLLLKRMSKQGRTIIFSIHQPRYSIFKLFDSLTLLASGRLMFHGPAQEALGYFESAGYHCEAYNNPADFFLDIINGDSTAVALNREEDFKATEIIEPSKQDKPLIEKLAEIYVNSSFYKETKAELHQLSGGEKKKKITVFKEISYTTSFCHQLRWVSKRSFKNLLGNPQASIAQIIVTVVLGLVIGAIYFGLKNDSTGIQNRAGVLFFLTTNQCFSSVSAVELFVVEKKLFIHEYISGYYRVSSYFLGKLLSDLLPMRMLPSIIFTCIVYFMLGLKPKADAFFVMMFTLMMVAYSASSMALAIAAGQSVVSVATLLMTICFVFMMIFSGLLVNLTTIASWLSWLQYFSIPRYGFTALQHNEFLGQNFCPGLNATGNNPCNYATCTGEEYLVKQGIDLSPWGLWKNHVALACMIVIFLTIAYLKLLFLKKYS

[11] = Trial 1: treatment-emergent adverse events; type: in vivo, human
[12] = target: T3, BCRP; test: Prazosin transport in MDCKII BCRP expressing cells; conditions: 90-mg TLV dose (200 µmol) assumed completely soluble in 250 ml
[13] = predicted; cited from earlier work
[14] = system: sandwich‐cultured human hepatocytes; conditions: cited from earlier work
[15] = cited from earlier work; for Solubility: pH independent
[16] = rosuvastatin + 90 mg tolvaptan vs rosuvastatin alone, n = 14
[17] = trial 2, period 2 (TLV alone, 300 mg q.d.)
[18] = trial 1, period 3 (TLV alone, 300 mg q.d.)

Plasma concentration, mean (SD) ([2]; trial 1, 48 h postdose after 7 days 300 mg TLV q.d.): 7240 (1880) ng/ml
Plasma concentration, mean (SD) [3]: 6430 (2030) ng/ml
Time to steady-state concentrations after start of TLV dosing [4]: ~ 8 weeks
Clinical inhibition of OAT3 [5]: not an inhibitor
Clinical inhibition of OATP1B1 ([6]; at clinically relevant concentrations): not an inhibitor
Plasma protein binding [7]: greater than 99.8%
SMILES: Cc1ccccc1C(=O)Nc1ccc(C(=O)Nc2ccc(Cl)cc2C(=O)CCC(=O)O)c(C)c1 [DM‐4103]
Mean steady-state plasma concentration ([1]; 90 + 30 mg TLV regimen in subjects with ADPKD, ref data on file): ~ 7500 ng/ml and ~15.7 µM
Elimination half-life [1]: ~ 180 h
Plasma concentrations ([1]; first 2 h following a 90 mg TLV dose, ref data on file): less than 100 ng/ml

SMILES: NS(=O)(=O)c1cc(C(=O)O)c(NCc2ccco2)cc1Cl [Furosemide, furosemide]
TEAE incidence: polyuria ([8]; trial 2, period 1 (furosemide alone)): 64.3%
TEAE incidence: headache ([8]; trial 2, period 3 (furosemide in presence of DM-4103)): 21.4%

Tmax ([2]; 5 mg ROS alone, median (minimum-maximum)): 3.50 (2.00–6.00) h
AUC(0-inf) ([2]; human, plasma, oral, 5 mg, AUC∞, 5 mg ROS alone, minimum-maximum, n = 7): 20.3 to 36 ng·h/mL
CL/F ([2]; human, plasma, oral, 5 mg, CL/F, 5 mg ROS alone, minimum-maximum, n = 7): 28.5 to 68.2 mL/min/kg
half-life ([2]; human, plasma, oral, 5 mg, t1/2,z, 5 mg ROS alone, minimum-maximum, n = 7): 2.4 to 4.3 h
Geometric mean ratio (90% CI), AUC∞ ([6]; rosuvastatin in presence of DM-4103 vs rosuvastatin alone, n = 5): 0.998^b 0.876–1.138
Geometric mean ratio (90% CI), AUC∞ ([10]; rosuvastatin + 90 mg tolvaptan vs rosuvastatin alone, n = 6): 1.281^a 1.148–1.429
Geometric mean ratio (90% CI), AUCt [10, 16]: 1.69
Geometric mean ratio (90% CI), Cmax [10, 16]: 1.54
SMILES: CC(C)c1nc(N(C)S(C)(=O)=O)nc(-c2ccc(F)cc2)c1/C=C/[C@@H](O)C[C@@H](O)CC(=O)O [ROS, rosuvastatin]
Share of rosuvastatin uptake accounted for by NTCP alone ([9]; human hepatocyte studies): ~ 35%
TEAE incidence: nausea ([11]; trial 1, period 1 (rosuvastatin)): 12.5%
TEAE incidence: headache ([11]; trial 1, period 3 (rosuvastatin in presence of DM-4103)): 14.3%

Predicted concentration of dose in 250 ml (Igut) [12]: 800 µM
Clinical inhibition of BCRP ([10]; 90 mg TLV with 5 mg rosuvastatin calcium): No clinically relevant inhibition
SMILES: Cc1ccccc1C(=O)Nc1ccc(C(=O)N2CCCC(O)c3cc(Cl)ccc32)c(C)c1 (stereo not shown) [TLV, Tolvaptan]
Safety and tolerability ([1]; 300 mg TLV for 5 days, healthy subjects): safe and well‐tolerated
half-life [1]: about 3.5 h
NTCP inhibition ([9]; IC50 value higher than Cmax): inhibitor of NTCP
TEAE incidence: constipation [8, 17]: 14.3%
TEAE incidence: dizziness [8, 17]: 14.3%
TEAE incidence: dry mouth [8, 17]: 21.4%
TEAE incidence: headache [8, 17]: 14.3%
TEAE incidence: insomnia [8, 17]: 14.3%
TEAE incidence: polyuria [8, 17]: 100%
TEAE incidence: thirst [8, 17]: 92.9%
Liver:blood ratio [13]: 38.76
Accumulation in sandwich-cultured human hepatocytes [14]: at least 10 fold
TEAE incidence: constipation [11, 18]: 14.3%
TEAE incidence: dry mouth [11, 18]: 14.3%
TEAE incidence: nausea [11, 18]: 21.4%
TEAE incidence: pollakiuria [11, 18]: 71.4%
Increase of in vitro solubility by spray-dried formulation ([15]; TLV tablets, spray-dried technique): up to sevenfold
Solubility [15]: ~ 0.01 g/250 ml
Solubility ([15]; in Discussion): about 0.01 mg/250 ml and ~ 0.09 µM
